Results published in patent US10391166B2, “Short oligonucleotides as vaccine adjuvants and therapeutic agents” (priority 2013, dated 2019).
Entries after “also recorded” stand apart in the source; their conditions may differ. Read-outs that look alike come from different tables or passages of the source.

Assays:
M. tuberculosis [1] = tested on: M. tuberculosis; design: species or system C57Bl/6 mice; settings: mouse, in vivo
RIG-I and NOD2 = type: cell-based; settings: receptor-deficient cells, exogenous RIG-I and NOD2
[2] = human liver S9 fractions
Method: SB 44 (10 μM) was incubated with a mix containing S9 fraction (pooled from human) (1 mg/ml), NADPH (1.3 mM) UDPGA (5 mM), Alamethicin (10 μg/ml) in 1 ml of 1×PBS buffer. S-(5′-adenosyl)-L-methionine iodide (0.1 mM), adenosine 3′-phosphate 5′-phosphosulfate lithium salt hydrate (0.1 mM) and acetyl CoA (1 mM). The metabolite samples were evaluated by HPLC and LC/MS analysis.

M. tuberculosis [3] = tested on: M. tuberculosis; design: species or system C57Bl/6 mice; settings: mouse, in vivo; remark: listed apart in the source
[4] = liver microsomes
Method: SB 44 (10 μM) was incubated with a mix containing S9 fraction (pooled from human) (1 mg/ml), NADPH (1.3 mM) UDPGA (5 mM), Alamethicin (10 μg/ml) in 1 ml of 1×PBS buffer. […] The metabolite samples were evaluated by HPLC and LC/MS analysis.

[5] = Bioreversibility of SB 44 in serum; type: in vitro ADME
Text: Similar to the serum-mediated conversion of SB 44 to SB 40, in the case of microsomes liver esterases appear to be the major metabolizing enzymes involved in the hydrolytic conversion of SB 44 to SB 40. […] The facile bioconversion of SB 44 to SB 40 in liver and plasma is also consistent with broad substrate specificity of the ubiquitous esterase enzymes.

[6] = tested on: peripheral blood mononuclear cells (PBMCs); assay: Multiplex assay for 28 cytokines in PBMCs; type: cell-based, human; settings: up to 50 μM
interferon-β (IFN-β) = assay: IFN-β production from human lung epithelial A549 cells; type: cell-based
[7] = tested on: HFF (human foreskin fibroblasts); assay: MTT cytotoxicity assay, HFF cells; type: cell-based; settings: 24-hour incubation
Text: (§1) SDS was used as a positive cytotoxic control.

IL-1β = assay: Mature IL-1β ELISA in mouse bone marrow derived primary macrophages; type: cell-based; settings: alone or with MDP or BCG, caspase blockade with ZVAD-fmk
Method: C57Bl/6 mouse bone marrow derived primary macrophages were treated with SB 1A or SB 1B alone, MDP alone or in combination as indicated for 4 hrs. BCG was used for infection for 4 hrs and supernatants collected 18 hr later titrated for mature IL1β using ELISA. Macrophages were first treated with ZVAD-fmk (2 hrs) for caspase blockade followed by activation with SB 1A and SB 1B (4 hrs) and BCG infection (4 hrs). Cytokine was measured 18 hrs later.

phosphorylated IRF3 = assay: Western blot for phosphorylated IRF3 in human lung epithelial A549 cells; type: cell-based; settings: 500 nM, Western blotting
Method: Human lung epithelial A549 cells were incubated with either DMSO or SB 44 (500 nM). At indicated post-treatment time-points, the cell lysate was subjected to Western blotting with antibody specific for phosphorylated IRF3 (phospho-IRF3) (Cell signaling).

[8] = 14-day oral toxicity study in rats with two-week recovery; type: in vivo, Sprague-Dawley rats
Method: (§2) Necropsies were performed on Day 15 for rats in the main study group and on Day 28 for rats in the recovery group.

[9] = tested on: IRF3-luciferase reporter gene; assay: IRF3-luciferase reporter induction in HLE A549 cells (primary assay for NOD2 activation); type: cell-based, human; settings: 12 h incubation
Method: The evaluation of SMNH compounds for NOD2 activation was conducted by primary, secondary, and tertiary assays. In the primary assays, SMNH compounds were tested for the induction of IRF3 expression in HLE A549 cells, which are known to endogenously express NOD2. […] SB 44, a mixture of two isomers Rp and Sp, is a prodrug of SB 40. SB 1B—the Rp isomer of SB 44 and is shown as SB 44-1 in the FIGS. 1-2.
IRF3-luciferase transfected cells were incubated with either DMSO only (UT) or SMNH compounds (μM). Following 12 h incubation, luciferase activity was measured using Dual-Luciferase Reporter Assay System (Promega) according to the manufacturer's protocol. Transfection efficiency was normalized by measuring the expression of renilla Luciferase. Luciferase units (i.e., fold induction) were measured by standard methodology (mean±standard deviation; 3 independent experiments). The results are depicted in FIG. 1.

Vero = assay: MTT cytotoxicity assay, Vero cells; type: cell-based; settings: 24-hour incubation
Text: as §1

[10] = tested on: rat bone marrow erythrocytes; assay: Bone-marrow micronucleus evaluation in rats; type: in vivo, Sprague-Dawley rats; settings: 14-day oral dosing
Method: as §2

NF-kB = assay: NF-kB-luciferase assay in HEK 293 cells transfected with RIGI and Nod2; type: cell-based; settings: 10 μM; 12 h incubation
Method: HEK 293 cells were transfected with RIGI, pcDNA, Nod2 and NF-kB-luciferase. The cells were then incubated with SB 44 (10 μM). Following 12 h incubation, Luciferase activity was measured as described previously. The Luciferase assay results are presented as mean±S.D. from three independent experiments.

SMILES: COC1C(OP(=O)(OCC2OC(n3cnc4c(N)ncnc43)CC2O)SCOC(=O)OC(C)C)C(CO)OC1n1ccc(=O)[nH]c1=O (mixture of isomers) [SB 44]
- antigen specific CD8 / memory T cells in lungs of re-challenged mice (M. tuberculosis [1]): boost the magnitude of antigen specific memory T cells; also recorded: induces a robust expansion of antigen specific CD8 T cells
- protection against re-challenge of tuberculosis (M. tuberculosis [1]): induce protection against re-challenge of tuberculosis in mice
- recall response against re-challenge with tuberculosis (M. tuberculosis [1]): retain the ability to mount a better recall response
- enhancement of ISG-56 expression over that induced by PolyI-PolyC (RIG-I and NOD2): 2 fold
- conversion of prodrug to SB 40 [2]: stereospecific conversion of SB 44 to the dinucleotide SB 40
- phase II conjugative reactions [2]: no apparent evidence of any phase II conjugative reactions
- desulfurized product corresponding to SB 40 ([2]; LC/MS): < 5%
- Mtb counts of lungs (M. tuberculosis [3]): reducing Mtb counts of lungs better than either BCG or MDP+BCG
- Mtb counts of spleens (M. tuberculosis [3]): better than BCG vaccine in reducing Mtb counts of spleens
- adjuvant efficacy with BCG vaccine against tuberculosis (M. tuberculosis [3]): better than muramyl dipeptide (MDP) as adjuvants
- anti-TB T cell function of mice (M. tuberculosis [3]): dramatic increase in anti-TB T cell function of mice
- memory precursor T cells (MPECs) (M. tuberculosis [3]): induces better memory precursor T cells (MPECs) than BCG vaccine
- tetramer specific CD8 T cells (M. tuberculosis [3]): comparable levels of tetramer specific CD8 T cells
- minor metabolites [4]: < 10%
- rate differences in conversion of Rp- and Sp-isomers [4]: no significant rate differences
- desulfurized product ([4]; MS analysis): < 5%
- conversion of prodrug to SB 40 ([4]; up to eight hours): stereospecific conversion to the dinucleotide Rp, Sp-SB 40
- conversion rates of the individual isomers [5]: almost equal rates
- cytokine induction in human PBMC cultures [6]: did not cause cytokine induction
- production of IFN-β (interferon-β (IFN-β)): induces production of interferon-β
- CC50 [7]: > 1000 µM
- induction of mature IL-1β (IL-1β): induce IL-1β only in combination with either MDP or intact BCG bacilli
- activated IRF3 (phospho-IRF3) detection (phosphorylated IRF3): detection of activated IRF3
- no observed effect level (NOEL) ([8]; 14-day oral study): 50 mg/kg/day
- overt toxicity ([8]; 50, 200, 500 mg/kg/day oral for 14 days): did not cause overt toxicity
- thymus microscopic change ([8]; males and females at 200 and 500 mg/kg/day): Minimal to mild increases in thymic phagocytic macrophages
- IRF3 activation (IRF3-luciferase) [9]: induced IRF3 activation
- CC50 (Vero): > 1000 µM
- induction of micronuclei [10]: not found to induce micronuclei
- induction of NF-kB activity via RIGI and Nod2 activation (NF-kB): induction of NF-kB activity; also recorded: induction of the transcription factor, NF-KB
